{"source": "patent US20060083754A1", "about": "“Pharmaceutical combinations comprising corticoids and immunosuppressants for treating corticoid- and/or calcineurin inhibitors-resistant diseases” (priority 2003, published 2006)", "key": {"[1]": {"tested_on": "human peripheral blood mononuclear cells (PBMC)", "experiment": "T-cell proliferation assay (BrdU ELISA), PBMC stimulated with anti-CD3 mAb + anti-CD28 mAb", "assay_type": "cell-based", "conditions": "anti-CD3 mAb (0.1 μg/ml)+anti-CD28 mAb (1 μg/ml); for inhibition at 10 µM: Homo sapiens, PBMC"}, "[2]": {"tested_on": "human peripheral blood mononuclear cells (PBMC)", "experiment": "T-cell proliferation assay (BrdU ELISA), PBMC stimulated with SEB", "assay_type": "cell-based", "conditions": "SEB (0.1 μg/ml)"}, "[3]": {"conditions": "Example 1, 200000 cells/well, HC 10 μM, ASM 30 nM, BETA 300 nM"}, "[4]": {"conditions": "Example 2, 100000 cells/well, HC 10 μM, ASM 30 nM, BETA 300 nM"}, "[5]": {"conditions": "Example 3, 50000 cells/well, HC 10 μM, ASM 30 nM, BETA 300 nM"}, "[6]": {"conditions": "Example 13, 200000 cells/well, HC 10 μM, FK 30 nM, BETA 300 nM"}}, "data": [{"molecule": "C[C@@H]1C[C@H]2[C@@H]3CCC4=CC(=O)C=C[C@]4(C)[C@@]3(F)[C@@H](O)C[C@]2(C)[C@@]1(O)C(=O)CO", "note": "[DEX, dexamethasone]", "values": [{"measurement": "Normalized OD (% STIM-C)", "setting": "[1]; Example 6, 200000 cells/well, DEX 300 nM, ASM 30 nM, BETA 300 nM", "value": 87.2, "unit": "% STIM-C"}, {"measurement": "Normalized OD (% STIM-C)", "setting": "[1]; Example 7, 100000 cells/well, DEX 300 nM, ASM 30 nM, BETA 300 nM", "value": 76.5, "unit": "% STIM-C"}, {"measurement": "Normalized OD (% STIM-C)", "setting": "[1]; Example 8, 50000 cells/well, DEX 300 nM, ASM 30 nM, BETA 300 nM", "value": 82.2, "unit": "% STIM-C"}, {"measurement": "Normalized OD (% STIM-C)", "setting": "[1]; Example 11, 100000 cells/well, DEX 300 nM, ASM 30 nM", "value": 76.3, "unit": "% STIM-C"}, {"measurement": "Normalized OD (% STIM-C)", "setting": "[1]; Example 15, 200000 cells/well, DEX 300 nM, FK 30 nM, BETA 300 nM", "value": 87.2, "unit": "% STIM-C"}, {"measurement": "Normalized OD (% STIM-C)", "setting": "[1]; Example 16, 100000 cells/well, DEX 300 nM, FK 30 nM, BETA 300 nM", "value": 76.5, "unit": "% STIM-C"}, {"measurement": "Normalized OD (% STIM-C)", "setting": "[1]; Example 17, 50000 cells/well, DEX 300 nM, FK 30 nM, BETA 300 nM", "value": 82.2, "unit": "% STIM-C"}, {"measurement": "Normalized OD (% STIM-C)", "setting": "[1]; Example 18, 100000 cells/well, DEX 300 nM, FK 30 nM", "value": 76.3, "unit": "% STIM-C"}, {"measurement": "Normalized OD (% STIM-C)", "setting": "[1]; Example 23, 200000 cells/well, DEX 300 nM, CsA 300 nM, BETA 300 nM, DEX (300 nM)+CsA (30 nM), BETA (300 nM)+CsA (300 nM)", "value": 87.2, "unit": "% STIM-C"}, {"measurement": "Normalized OD (% STIM-C)", "setting": "[1]; Example 24, 100000 cells/well, DEX 300 nM, CsA 300 nM, BETA 300 nM, DEX (300 nM)+CsA (30 nM), BETA (300 nM)+CsA (300 nM)", "value": 76.5, "unit": "% STIM-C"}, {"measurement": "Normalized OD (% STIM-C)", "setting": "[1]; Example 25, 50000 cells/well, DEX 300 nM, CsA 300 nM, BETA 300 nM, DEX (300 nM)+CsA (30 nM), BETA (300 nM)+CsA (300 nM)", "value": 82.2, "unit": "% STIM-C"}, {"measurement": "Normalized OD (% STIM-C)", "setting": "[1]; Example 27, 100000 cells/well, DEX 300 nM, CsA 300 nM", "value": 76.3, "unit": "% STIM-C"}, {"measurement": "Normalized OD (% STIM-C)", "setting": "[2]; Example 9, 200000 cells/well, DEX 300 nM, ASM 30 nM, BETA 300 nM", "value": 101.5, "unit": "% STIM-C"}, {"measurement": "Normalized OD (% STIM-C)", "setting": "[2]; Example 10, 100000 cells/well, DEX 300 nM, ASM 30 nM, BETA 300 nM", "value": 86.4, "unit": "% STIM-C"}, {"measurement": "Normalized OD (% STIM-C)", "setting": "[2]; Example 12, 100000 cells/well, DEX 300 nM, ASM 30 nM", "value": 105.7, "unit": "% STIM-C"}, {"measurement": "Normalized OD (% STIM-C)", "setting": "[2]; Example 26, 200000 cells/well, DEX 300 nM, CsA 300 nM, BETA 300 nM, DEX (300 nM)+CsA (30 nM), BETA (300 nM)+CsA (300 nM)", "value": 101.5, "unit": "% STIM-C"}]}, {"molecule": "C[C@]12CCC(=O)C=C1CC[C@@H]1[C@@H]2[C@@H](O)C[C@@]2(C)[C@H]1CC[C@]2(O)C(=O)CO", "note": "[HC, hydrocortisone]", "values": [{"measurement": "Normalized OD (% STIM-C)", "setting": "[1]; [3]", "value": 106.8, "unit": "% STIM-C"}, {"measurement": "Normalized OD (% STIM-C)", "setting": "[1]; [4]", "value": 92.0, "unit": "% STIM-C"}, {"measurement": "Normalized OD (% STIM-C)", "setting": "[1]; [5]", "value": 109.0, "unit": "% STIM-C"}, {"measurement": "Normalized OD (% STIM-C)", "setting": "[1]; [6]", "value": 106.8, "unit": "% STIM-C"}, {"measurement": "Normalized OD (% STIM-C)", "setting": "[1]; Example 14, 100000 cells/well, HC 10 μM, FK 30 nM, BETA 300 nM", "value": 92.0, "unit": "% STIM-C"}, {"measurement": "Normalized OD (% STIM-C)", "setting": "[1]; Example 19, 200000 cells/well, HC 10 μM, CsA 300 nM, BETA 300 nM, HC (10 μM)+CsA (30 nM), BETA (300 nM)+CsA (300 nM)", "value": 106.8, "unit": "% STIM-C"}, {"measurement": "Normalized OD (% STIM-C)", "setting": "[1]; Example 20, 100000 cells/well, HC 10 μM, CsA 300 nM, BETA 300 nM, HC (10 μM)+CsA (30 nM), BETA (300 nM)+CsA (300 nM)", "value": 92.0, "unit": "% STIM-C"}, {"measurement": "Normalized OD (% STIM-C)", "setting": "[1]; Example 21, 50000 cells/well, HC 10 μM, CsA 300 nM, BETA 300 nM, HC (10 μM)+CsA (30 nM), BETA (300 nM)+CsA (300 nM)", "value": 109.0, "unit": "% STIM-C"}, {"measurement": "inhibition at 10 µM", "setting": "[1]; [3]", "value": -7.4, "unit": "%"}, {"measurement": "inhibition at 10 µM", "setting": "[1]; [4]", "value": "< 17", "unit": "%"}, {"measurement": "inhibition at 10 µM", "setting": "[1]; [5]", "value": -9.7, "unit": "%"}, {"measurement": "inhibition at 10 µM", "setting": "[1]; [6]", "value": -7.4, "unit": "%"}, {"measurement": "Normalized OD (% STIM-C)", "setting": "[2]; Example 4, 200000 cells/well, HC 10 μM, ASM 30 nM, BETA 300 nM", "value": 89.0, "unit": "% STIM-C"}, {"measurement": "Normalized OD (% STIM-C)", "setting": "[2]; Example 5, 100000 cells/well, HC 10 μM, ASM 30 nM, BETA 300 nM", "value": 100.5, "unit": "% STIM-C"}, {"measurement": "Normalized OD (% STIM-C)", "setting": "[2]; Example 22, 200000 cells/well, HC 10 μM, CsA 300 nM, BETA 300 nM, HC (10 μM)+CsA (30 nM), BETA (300 nM)+CsA (300 nM)", "value": 89.0, "unit": "% STIM-C"}]}]}
